Reference: patent US9944645B2, “Imidazotriazines and imidazopyrimidines as kinase inhibitors” (Incyte Holdings Corporation, priority 2006, dated 2018)

target: c-Met kinase (h-Met; histidine-tagged c-Met catalytic domain fusion protein) (Homo sapiens (Human), UniProt P08581); test: In Vitro c-Met Kinase Enzyme Assays; format: biochemical; conditions: phosphorylation of poly Glu-Tyr, 5 μM ATP, 25 minutes at 30° C.
Procedure, shortened: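 His-tagged c-Met catalytic domain reacted 25 min at 30° C, within the linear initial-rate range. Phosphotyrosine detected by ELISA with peroxidase-labeled anti-phospho-tyrosine antibody and TMB, OD read at 450 nm (540 nm correction); IC50 from curve fit.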

Sequence of c-Met kinase (h-Met; histidine-tagged c-Met catalytic domain fusion protein) (P08581 1078-1345): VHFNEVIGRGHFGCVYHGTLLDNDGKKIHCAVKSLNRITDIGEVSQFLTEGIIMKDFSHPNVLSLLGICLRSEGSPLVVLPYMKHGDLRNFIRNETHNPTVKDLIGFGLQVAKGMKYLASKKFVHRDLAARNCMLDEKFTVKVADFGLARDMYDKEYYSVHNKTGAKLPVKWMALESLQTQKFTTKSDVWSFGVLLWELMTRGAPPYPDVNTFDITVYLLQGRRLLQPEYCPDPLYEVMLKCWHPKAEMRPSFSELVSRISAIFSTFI

Structure (SMILES)	IC50
CC(NC(=O)c1ccc(-c2cnc3ncc(C4(c5ccc6ncccc6c5)CC4)n3c2)cc1Cl)c1ccccn1 (stereo not shown) [Example 177, 2-Chloro-N-(1-pyridin-2-ylethyl)-4-[3-(1-quinolin-6-ylcyclopropyl)imidazo[1,2-a]pyrimidin-6-yl]benzamide]	< 500 nM
O=C(NC1CCN(c2ccccn2)C1)c1ccc(-c2cnc3ncc(C4(c5ccc6ncccc6c5)CC4)n3c2)cc1Cl (stereo not shown) [Example 179, 2-Chloro-N-(1-pyridin-2-ylpyrrolidin-3-yl)-4-[3-(1-quinolin-6-ylcyclopropyl)imidazo[1,2-a]pyrimidin-6-yl]benzamide]	< 500 nM
CC(COc1ccccn1)NC(=O)c1ccc(-c2cnc3ncc(C4(c5ccc6ncccc6c5)CC4)n3c2)cc1Cl (stereo not shown) [Example 180, 2-Chloro-N-[1-methyl-2-(pyridin-2-yloxy)ethyl]-4-[3-(1-quinolin-6-ylcyclopropyl)imidazo[1,2-a]pyrimidin-6-yl]benzamide]	< 500 nM
CC(C)[C@H](NC(=O)c1ccc(-c2cnc3ncc(C4(c5ccc6ncccc6c5)CC4)n3c2)cc1Cl)C(=O)N(C)C [Example 181, 2-Chloro-N-(1S)-1-[(dimethylamino)carbonyl]-2-methylpropyl-4-[3-(1-quinolin-6-ylcyclopropyl)imidazo[1,2-a]pyrimidin-6-yl]benzamide]	< 500 nM
O=C1c2ccc(-c3cnc4ncc(C5(c6ccc7ncccc7c6)CC5)n4c3)cc2CN1C1CC1 [Example 182, 2-Cyclopropyl-5-[3-(1-quinolin-6-ylcyclopropyl)imidazo[1,2-a]pyrimidin-6-yl]isoindolin-1-one]	< 500 nM
COCC(C)N1Cc2cc(-c3cnc4ncc(C5(c6ccc7ncccc7c6)CC5)n4c3)ccc2C1=O (stereo not shown) [Example 184, 2-(2-Methoxy-1-methylethyl)-5-[3-(1-quinolin-6-ylcyclopropyl)imidazo[1,2-a]pyrimidin-6-yl]isoindolin-1-one]	< 500 nM
CN1Cc2cc(-c3cnc4ncc(C5(c6ccc7ncccc7c6)CC5)n4c3)ccc2C1=O [Example 186, 2-Methyl-5-[3-(1-quinolin-6-ylcyclopropyl)imidazo[1,2-a]pyrimidin-6-yl]isoindolin-1-one]	< 500 nM
CC(COc1ccccn1)NC(=O)C1(c2ccc(-c3cnc4ncc(C5(c6ccc7ncccc7c6)CC5)n4c3)cc2)CC1 (stereo not shown) [Example 189, N-[1-Methyl-2-(pyridin-2-yloxy)ethyl]-1-{4-[3-(1-quinolin-6-ylcyclopropyl)imidazo[1,2-a]pyrimidin-6-yl]phenyl}cyclopropanecarboxamide]	< 500 nM
CNC(=O)C(O)c1ccc(-c2cnc3ncc(C4(c5ccc6ncccc6c5)CC4)n3c2)cc1F (stereo not shown) [Example 190, 2-{2-Fluoro-4-[3-(1-quinolin-6-ylcyclopropyl)imidazo[1,2-a]pyrimidin-6-yl]phenyl}-2-hydroxy-N-methylacetamide]	< 500 nM
CNS(=O)(=O)c1ccc(-c2cnc3ncc(C4(c5ccc6ncccc6c5)CC4)n3c2)cc1F [Example 196, 2-Fluoro-N-methyl-4-[3-(1-quinolin-6-ylcyclopropyl)imidazo[1,2-a]pyrimidin-6-yl]benzenesulfonamide]	< 500 nM
CN(C)C(=O)Cn1ccc(-c2cnc3ncc(C4(c5ccc6ncccc6c5)CC4)n3c2)n1 [Example 197, N,N-Dimethyl-2-{3-[3-(1-quinolin-6-ylcyclopropyl)imidazo[1,2-a]pyrimidin-6-yl]-1H-pyrazol-1-yl}acetamide]	< 500 nM
CC(C)(C)[C@H](NC(=O)c1ccc(-c2cnc3ncc(C4(c5ccc6ncccc6c5)CC4)n3c2)cc1F)C(=O)N1CCC1 [Example 198, N-[(1S)-1-(Azetidin-1-ylcarbonyl)-2,2-dimethylpropyl]-2-fluoro-4-[3-(1-quinolin-6-ylcyclopropyl)imidazo[1,2-a]pyrimidin-6-yl]benzamide]	< 500 nM
CC(NC(=O)c1ccc(-c2cnc3ncc(C4(c5ccc6ncccc6c5)CC4)n3c2)cc1F)C(=O)N(C)C (stereo not shown) [Example 199, N-[2-(Dimethylamino)-1-methyl-2-oxoethyl]-2-fluoro-4-[3-(1-quinolin-6-ylcyclopropyl)imidazo[1,2-a]pyrimidin-6-yl]benzamide]	< 500 nM

Other lines, results leading:

IC50	Structure (SMILES)
< 500 nM	O=C(c1ccc(-c2cnc3ncc(C4(c5ccc6ncccc6c5)CC4)n3c2)cc1Cl)N1CCC1 [Example 178, 6-(1-{6-[4-(Azetidin-1-ylcarbonyl)-3-chlorophenyl]imidazo[1,2-a]pyrimidin-3-yl}cyclopropyl)quinoline]
< 500 nM	CCN1Cc2cc(-c3cnc4ncc(C5(c6ccc7ncccc7c6)CC5)n4c3)ccc2C1=O [Example 183, 2-Ethyl-5-[3-(1-quinolin-6-ylcyclopropyl)imidazo[1,2-a]pyrimidin-6-yl]isoindolin-1-one]
< 500 nM	O=C1c2ccc(-c3cnc4ncc(C5(c6ccc7ncccc7c6)CC5)n4c3)cc2CN1Cc1ccccn1 [Example 185, 2-(Pyridin-2-ylmethyl)-5-[3-(1-quinolin-6-ylcyclopropyl)imidazo[1,2-a]pyrimidin-6-yl]isoindolin-1-one]
< 500 nM	CCNC(=O)C1(c2ccc(-c3cnc4ncc(C5(c6ccc7ncccc7c6)CC5)n4c3)cc2)CC1 [Example 187, N-Ethyl-1-{4-[3-(1-quinolin-6-ylcyclopropyl)imidazo[1,2-a]pyrimidin-6-yl]phenyl}cyclopropanecarboxamide]
< 500 nM	CC(NC(=O)C1(c2ccc(-c3cnc4ncc(C5(c6ccc7ncccc7c6)CC5)n4c3)cc2)CC1)c1ccccn1 (stereo not shown) [Example 188, N-(1-Pyridin-2-ylethyl)-1-{4-[3-(1-quinolin-6-ylcyclopropyl)imidazo[1,2-a]pyrimidin-6-yl]phenyl}cyclopropanecarboxamide]
< 500 nM	CN(C)C(=O)C(O)c1ccc(-c2cnc3ncc(C4(c5ccc6ncccc6c5)CC4)n3c2)cc1F (stereo not shown) [Example 191, 2-{2-fluoro-4-[3-(1-quinolin-6-ylcyclopropyl)imidazo[1,2-a]pyrimidin-6-yl]phenyl}-2-hydroxy-N,N-dimethylacetamide]
< 500 nM	CCNC(=O)Nc1cccc(Cc2cnc3ncc(-c4ccc(Br)c(F)c4)nn23)c1 [Example 192, N-(3-[2-(4-Bromo-3-fluorophenyl)imidazo[1,2-b][1,2,4]triazin-7-yl]methylphenyl)-N′-ethylurea]
< 500 nM	Nc1nc2ncc(C3(c4ccc5ncccc5c4)CC3)n2nc1-c1cccc(Cl)c1Cl [Example 193, 2-(2,3-Dichlorophenyl)-7-(1-quinolin-6-ylcyclopropyl)imidazo[1,2-b][1,2,4]triazin-3-amine]
< 500 nM	CNC(=O)c1ccc(-c2cnc3ncc(C4(c5ccc6ncccc6c5)CC4)n3c2)c(F)c1F [Example 194, 2,3-Difluoro-N-methyl-4-[3-(1-quinolin-6-ylcyclopropyl)imidazo[1,2-a]pyrimidin-6-yl]benzamide]
< 500 nM	CNC(=O)c1c(F)cc(-c2cnc3ncc(C4(c5ccc6ncccc6c5)CC4)n3c2)cc1F [Example 195, 6-Difluoro-N-methyl-4-[3-(1-quinolin-6-ylcyclopropyl)imidazo[1,2-a]pyrimidin-6-yl]benzamide]
< 500 nM	CC(NC(=O)c1ccc(-c2cnc3ncc(C4(c5ccc6ncccc6c5)CC4)n3c2)cc1F)C(=O)N1CCC1 (stereo not shown) [Example 200, N-(2-Azetidin-1-yl-1-methyl-2-oxoethyl)-2-fluoro-4-[3-(1-quinolin-6-ylcyclopropyl)imidazo[1,2-a]pyrimidin-6-yl]benzamide]
< 500 nM	O=C(NCC1(O)CC1)c1ccc(-c2cnc3ncc(Cc4ccc5ncccc5c4)n3n2)cc1F [Example 202, 2-Fluoro-N-[(1-hydroxycyclopropyl)methyl]-4-[7-(quinolin-6-ylmethyl)imidazo[1,2-b][1,2,4]triazin-2-yl]benzamide]
< 500 nM	COC(=O)N1CCC(CC#N)(n2cc(-c3cnc4ncc(Cc5ccc6ncccc6c5)n4n3)cn2)CC1 [Example 203, Methyl 4-(cyanomethyl)-4-{4-[7-(quinolin-6-ylmethyl)imidazo[1,2-b][1,2,4]triazin-2-yl]-1H-pyrazol-1-yl}piperidine-1-carboxylate]
< 500 nM	CCOC(=O)N1CCC(CC#N)(n2cc(-c3cnc4ncc(Cc5ccc6ncccc6c5)n4n3)cn2)CC1 [Example 204, Ethyl 4-(cyanomethyl)-4-{4-[7-(quinolin-6-ylmethyl)imidazo[1,2-b][1,2,4]triazin-2-yl]-1H-pyrazol-1-yl}piperidine-1-carboxylate]
< 500 nM	CC(=O)N1CCC(CC#N)(n2cc(-c3cnc4ncc(Cc5ccc6ncccc6c5)n4n3)cn2)CC1 [Example 205, (1-Acetyl-4-{4-[7-(quinolin-6-ylmethyl)imidazo[1,2-b][1,2,4]triazin-2-yl]-1H-pyrazol-1-yl}piperidin-4-yl)acetonitrile]
